Results on 5 molecules are retold here after ChEMBL document CHEMBL1152393, “Dopamine D(3) receptor antagonists: The quest for a potentially selective PET ligand. Part two: Lead optimization” (Bioorg Med Chem Lett, 2009).

Each structure is given as a SMILES string.

The data set concerns Liver microsomes. Conditions: human.
Consider `N#Cc1cc(N2CCN(CCN3CCC(C(F)(F)F)CC3)C2=O)ccc1F`, for which the CL was determined as 9.1 mL/min/g. In turn, `N#Cc1cccc(N2CCN(CCN3Cc4ccccc4C3)C2=O)c1` returned a CL of 1.6 mL/min/g. Regarding `O=C1N(CCN2Cc3ccccc3C2)CCN1c1cccc(Cl)c1`, the CL is 8.9 mL/min/g. As for `O=C1N(CCN2CCC(C(F)(F)F)CC2)CCN1c1cccc(Cl)c1`, the CL came out at 17.6 mL/min/g. Then `CC(C)N1CCN(CCN2CCN(c3cccc(C#N)c3)C2=O)CC1`, with below 0.5 mL/min/g.
